Reference: patent US8796328B2, “TRPV1 antagonists” (AbbVie Inc., priority 2012, dated 2014)

Assays:
[1] = molecular target: T1, human TRPV1 receptor (hTRPV1) (Homo sapiens (Human), UniProt Q8NER1); assay: Capsaicin activation assay (FLIPR intracellular Ca2+); format: cell-based; settings: inhibition of capsaicin-induced intracellular Ca2+ increase; compounds added 3 minutes prior to capsaicin; read-out: hTRPV1 cap. IC50
Procedure: Dulbecco's modified Eagle medium (D-MEM) (with 4.5 mg/mL glucose) and fetal bovine serum were obtained from Hyclone Laboratories, Inc. (Logan, Utah). Dulbecco's phosphate-buffered saline (D-PBS) (with 1 mg/mL glucose and 3.6 mg/l Na pyruvate, without phenol red), L-glutamine, hygromycin B, and Lipofectamine® were obtained from Life Technologies (Grand Island, N.Y.). G418 sulfate was obtained from Calbiochem-Novabiochem Corp. (San Diego, Calif.). Capsaicin (8-methyl-N-vanillyl-6-nonenamide) was obtained from Sigma-Aldrich, Co. (St. Louis, Mo.). Fluo-4 AM (N-[4-[6-[(acetyloxy)methoxy]-2,7-difluoro-3-oxo-3H-xanthen-9-yl]-2-[2-[2-[bis[2-[(acetyloxy)methoxy]-2-oxyethyl]amino]-5-methylphenoxy]ethoxy]phenyl]-N-[2-[(acetyloxy)methoxy]-2-oxyethyl]-glycine, (acetyloxy)methyl ester) was purchased from Molecular Probes (Eugene, Oreg.).
(§1) The cDNAs for the human TRPV1 receptor (hTRPV1) were isolated by reverse transcriptase-polymerase chain reaction (RT-PCR) from human small intestine poly A+ RNA supplied by Clontech (Palo Alto, Calif.) using primers designed surrounding the initiation and termination codons identical to the published sequences (Hayes et al. Pain 2000, 88, 205-215). The resulting cDNA PCR products were subcloned into pCIneo mammalian expression vector (Promega) and fully sequenced using fluorescent dye-terminator reagents (Prism, Perkin-Elmer Applied Biosystems Division) and a Perkin-Elmer Applied Biosystems Model 373 DNA sequencer or Model 310 genetic analyzer. Expression plasmids encoding the hTRPV1 cDNA were transfected individually into 1321N1 human astrocytoma cells using Lipofectamine®. Forty-eight hours after transfection, the neomycin-resistant cells were selected with growth medium containing 800 μg/mL Geneticin (Gibco BRL). Surviving individual colonies were isolated and screened for TRPV1 receptor activity. Cells expressing recombinant homomeric TRPV1 receptors were maintained at 37° C. in D-MEM containing 4 mM L-glutamine, 300 μg/mL G418 (Cal-biochem) and 10% fetal bovine serum under a humidified 5% CO2 atmosphere.
The functional activity of compounds at the TRPV1 receptor was determined by measurement of intracellular Ca^2+ levels ([Ca^2]i) using the Fluorescence Imaging Plate Reader (FLIPR)^TETRA®. All compounds were tested over a 12-point one-third-log concentration range. Compound stocks, 10 mM, were prepared in DMSO, and diluted serially across a 384-well plate using a Bravo BenchCel workstation (Agilent Technologies, Santa Clara, Calif.). A stock concentration of capsaicin (10 mM) was made in DMSO, and diluted in D-PBS to a final concentration of 200 nM (4×). On the day prior to the experiment, recombinant HEK293 cells that stably express either human or rat TRPV1 (hTRPV1-3) were removed from tissue culture flasks and plated in growth medium into black-walled clear-bottom 384-well Biocoat™ poly-D-lysine assay plates (BD Biosciences, Bedford, Mass.) using a Multidrop® dispenser (ThermoScientific, Waltham, Mass.). On the day of the experiment, growth medium was removed, and the no-wash FLIPR® Calcium-4 dye (λEX=470-495 nm, λEM=515-575 nm; Molecular Devices, Sunnyvale, Calif.) was added to each well using the Multidrop® dispenser. Cells were incubated for 90-120 minutes in the dark at room temperature. Test compounds were added to the cells 3 minutes prior to the addition of 200 nM capsaicin (4×), and the final assay volume was 80 μL. Fluorescence readings were made at 1 to 5 second intervals over the course of the experimental run. The peak increase in relative fluorescence units (minus baseline) was calculated, and expressed as a percentage of the 50 nM capsaicin (control) response. Curve-fits of the data were solved using a four-parameter logistic Hill equation in GraphPad Prism® (GraphPad Software, Inc., San Diego, Calif.), and IC50 values (concentration of the test compounds that inhibits 50% of the intracellular Ca^2+ concentration increase induced by capasin) were calculated.

[2] = molecular target: T1, human TRPV1 receptor (hTRPV1); assay: Acid activation assay (pH 5.0, FLIPR intracellular Ca2+); format: cell-based; settings: 37.5 μM compound; percentage of the maximal pH 5.0-induced response remaining; read-out: hTRPV1 H+ (max % remain)
Procedure: Dulbecco's modified Eagle's medium (DMEM) with 4.5 mg/mL D-glucose, fetal bovine serum, L-glutamine, and 2-morpholinoethanesulfonic acid (MES) were purchased from Sigma-Aldrich Co. (St. Louis, Mo.). Dulbecco's phosphate-buffered saline (DPBS) with Ca^2+, Mg^2+, and 1 mg/mL D-glucose (pH 7.4), Geneticin®, 0.25% trypsin-1 mM EDTA, and penicillin-streptomycin were purchased from Invitrogen Corp. (Carlsbad, Calif.). The FLIPR® Calcium 4 assay kit was purchased from Molecular Devices (Sunnyvale, Calif.).
as §1, with “DMEM” for “D-MEM”
The functional activity of compounds at the TRPV1 receptor was determined by measurement of intracellular Ca^2+ levels ([Ca^2+]i) using the Fluorescence Imaging Plate Reader (FLIPR)^TETRA®. All compounds were tested over a 12-point one-half-log concentration range. Compound stocks, 10 mM, were prepared in DMSO, and diluted serially across a 384-well plate using a Bravo BenchCel workstation (Agilent Technologies, Santa Clara, Calif.).
On the day of the experiment growth medium was removed, and the no-wash FLIPR®Calcium-4 dye (λEX=470-495 nm, λEM=515-575 nm) was added to each well using the Multidrop® dispenser. Cells were incubated for 90-120 minutes in the dark at 25° C. Test compounds were dissolved in DMSO, and plates were prepared using an Agilent Bravo workstation (Agilent Technologies Inc., Santa Clara, Calif.). Compounds were added to the cells 3 minutes prior to the addition of a pH 5.0 solution. Reagents were delivered at a rate of 40 μL/sec, and the final assay volume was 80 μL. Acidic pH solutions were prepared by titration of DPBS/MES with 1 N HCl. The intensity of the fluorescence was captured and digitally transferred to an interfaced PC.

T1 sequence (Q8NER1 whole entry): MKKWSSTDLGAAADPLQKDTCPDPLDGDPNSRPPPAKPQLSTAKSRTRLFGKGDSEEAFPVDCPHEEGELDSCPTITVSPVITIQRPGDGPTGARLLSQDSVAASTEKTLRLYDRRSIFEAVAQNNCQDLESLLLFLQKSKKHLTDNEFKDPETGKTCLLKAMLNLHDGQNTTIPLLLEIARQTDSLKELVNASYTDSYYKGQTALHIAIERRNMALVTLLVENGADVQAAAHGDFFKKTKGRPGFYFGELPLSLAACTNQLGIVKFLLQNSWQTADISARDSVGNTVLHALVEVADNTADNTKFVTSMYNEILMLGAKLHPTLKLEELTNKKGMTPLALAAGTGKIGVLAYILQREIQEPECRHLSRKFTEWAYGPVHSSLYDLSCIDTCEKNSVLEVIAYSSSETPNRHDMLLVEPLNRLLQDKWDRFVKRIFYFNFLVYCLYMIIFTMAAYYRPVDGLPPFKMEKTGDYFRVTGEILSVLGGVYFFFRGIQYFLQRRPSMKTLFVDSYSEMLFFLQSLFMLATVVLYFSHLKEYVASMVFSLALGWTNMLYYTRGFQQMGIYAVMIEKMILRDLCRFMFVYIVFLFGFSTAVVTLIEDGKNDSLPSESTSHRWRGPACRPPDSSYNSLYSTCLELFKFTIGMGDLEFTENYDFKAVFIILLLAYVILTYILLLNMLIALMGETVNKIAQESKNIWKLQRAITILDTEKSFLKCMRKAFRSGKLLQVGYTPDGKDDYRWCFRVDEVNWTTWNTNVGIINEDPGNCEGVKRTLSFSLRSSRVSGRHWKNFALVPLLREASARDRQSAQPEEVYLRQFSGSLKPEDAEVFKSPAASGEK

| SMILES | IC50 [1] [nM] | remaining activity at 37.5 µM [2] [%] |
| --- | --- | --- |
| CS(=O)(=O)Nc1ccc(CNC(=O)N[C@@H]2CC(CF)(CF)Oc3cc(Cl)ccc32)cc1F [Example 6, N-{4-[({[(4R)-7-chloro-2,2-bis(fluoromethyl)-3,4-dihydro-2H-chromen-4-yl]carbamoyl}amino)methyl]-2-fluorophenyl}methanesulfonamide] | 2900 | 73 |
| CS(=O)(=O)Nc1ccc(CNC(=O)N[C@@H]2CCc3cc(F)ccc32)cc1F [Example 4, N-{2-fluoro-4-[({[(1R)-5-fluoro-2,3-dihydro-1H-inden-1-yl]carbamoyl}amino)methyl]phenyl}methanesulfonamide] | 16500 | 91 |
| CS(=O)(=O)Nc1ccc(CNC(=O)N[C@@H]2CCOc3ccc(F)cc32)cc1F [Example 30, N-{2-fluoro-4-[({[(4R)-6-fluoro-3,4-dihydro-2H-chromen-4-yl]carbamoyl}amino)methyl]phenyl}methanesulfonamide] | > 37500 | 84 |
| CCC1(CC)C[C@@H](NC(=O)NCc2ccc(NS(C)(=O)=O)c(F)c2)c2ccc(Cl)c(Cl)c2O1 [Example 8, N-{4-[({[(4R)-7,8-dichloro-2,2-diethyl-3,4-dihydro-2H-chromen-4-yl]carbamoyl}amino)methyl]-2-fluorophenyl}methanesulfonamide] | 330 | 24 |
| CC(C)(C)c1ccc2c(c1)CC[C@H]2NC(=O)NCc1ccc(NS(C)(=O)=O)c(F)c1 [Example 1, N-{4-[({[(1R)-5-tert-butyl-2,3-dihydro-1H-inden-1-yl]carbamoyl}amino)methyl]-2-fluorophenyl}methanesulfonamide] | 104 | 22 |
| CS(=O)(=O)Nc1ccc(CNC(=O)N[C@@H]2CC3(CCC3)Oc3ccc(F)cc32)cc1F [Example 17, N-{2-fluoro-4-[({[(4R)-6-fluoro-3,4-dihydrospiro[chromene-2,1′-cyclobutan]-4-yl]carbamoyl}amino)methyl]phenyl}methanesulfonamide] | 3030 | 69 |

The next lines start with the values.

| IC50 [1] [nM] | remaining activity at 37.5 µM [2] [%] | SMILES |
| --- | --- | --- |
| 3800 | 77 | CS(=O)(=O)Nc1ccc(CNC(=O)N[C@@H]2CCOc3c2cccc3C(F)(F)F)cc1F [Example 31, N-{2-fluoro-4-[({[(4R)-8-(trifluoromethyl)-3,4-dihydro-2H-chromen-4-yl]carbamoyl}amino)methyl]phenyl}methanesulfonamide] |
| 863 | 85 | CS(=O)(=O)Nc1ccc(CNC(=O)N[C@@H]2CC(CF)(CF)Oc3cc(OC(F)(F)F)ccc32)cc1F [Example 15, N-{4-[({[(4R)-2,2-bis(fluoromethyl)-7-(trifluoromethoxy)-3,4-dihydro-2H-chromen-4-yl]carbamoyl}amino)methyl]-2-fluorophenyl}methanesulfonamide] |
| 32800 | 82 | CC1(C)C[C@@H](NC(=O)NCc2ccc(NS(C)(=O)=O)c(F)c2)c2ccc(C(F)(F)F)nc2O1 [Example 42, N-{4-[({[(4R)-2,2-dimethyl-7-(trifluoromethyl)-3,4-dihydro-2H-pyrano[2,3-b]pyridin-4-yl]carbamoyl}amino)methyl]-2-fluorophenyl}methanesulfonamide] |
| 418 | 27 | CCC1(CC)C[C@@H](NC(=O)NCc2ccc(NS(C)(=O)=O)c(F)c2)c2cccc(F)c2O1 [Example 13, N-{4-[({[(4R)-2,2-diethyl-8-fluoro-3,4-dihydro-2H-chromen-4-yl]carbamoyl}amino)methyl]-2-fluorophenyl}methanesulfonamide] |
| 345 | 63 | C[C@]1(CF)C[C@@H](NC(=O)NCc2ccc(NS(C)(=O)=O)c(F)c2)c2ccc(C(F)(F)F)cc2O1 [Example 38, N-{2-fluoro-4-[({[(2R,4R)-2-(fluoromethyl)-2-methyl-7-(trifluoromethyl)-3,4-dihydro-2H-chromen-4-yl]carbamoyl}amino)methyl]phenyl}methanesulfonamide] |
| 10100 | 64 | C[C@@]1(C(F)F)C[C@@H](NC(=O)NCc2ccc(NS(C)(=O)=O)c(F)c2)c2ccccc2O1 [Example 40, N-{4-[({[(2S,4R)-2-(difluoromethyl)-2-methyl-3,4-dihydro-2H-chromen-4-yl]carbamoyl}amino)methyl]-2-fluorophenyl}methanesulfonamide] |
| > 37500 | 84 | CS(=O)(=O)Nc1ccc(CNC(=O)N[C@@H]2CCOc3cc(OC(F)(F)F)ccc32)cc1F [Example 26, N-{2-fluoro-4-[({[(4R)-7-(trifluoromethoxy)-3,4-dihydro-2H-chromen-4-yl]carbamoyl}amino)methyl]phenyl}methanesulfonamide] |
| 109 | 70 | CC1(C)C[C@@H](NC(=O)NCc2ccc(NS(C)(=O)=O)c(F)c2)c2ccc(C(F)(F)F)cc2O1 [Example 9, N-{4-[({[(4R)-2,2-dimethyl-7-(trifluoromethyl)-3,4-dihydro-2H-chromen-4-yl]carbamoyl}amino)methyl]-2-fluorophenyl}methanesulfonamide] |
| 587 | 58 | C[C@]1(C(F)(F)F)C[C@@H](NC(=O)NCc2ccc(NS(C)(=O)=O)c(F)c2)c2ccccc2O1 [Example 36, N-{2-fluoro-4-[({[(2R,4R)-2-methyl-2-(trifluoromethyl)-3,4-dihydro-2H-chromen-4-yl]carbamoyl}amino)methyl]phenyl}methanesulfonamide] |
